Usually Kd stands for the constant that tells how readily two partners part at equilibrium.

Kd and binding data for three compounds are collected here from paper PMC5537696 (2017).

The subject of assay [1] is SLA (short loop ATP hairpin aptamer) (DNA, aptamer, PEG6 spacer between 29 and 30) CACCTGGGGGAGTATTGCGGAGGAAGGTTCCAGGTG
The experiment in a line: surface plasmon field-enhanced fluorescence titration, Langmuir isotherm. Conditions: 6 mM MgCl2, 10 mM Tris pH 7.4 (HAB). On the technique in general: SPR reads the build-up and loss of mass on a sensor chip optically.

The subject of assay [2] is LLA (long loop ATP hairpin aptamer) (DNA, aptamer) CACCTGGGGGAGTATTGCGGAGGAAGGTTTTTTTTTTTTTTTTTTTTTTTTTTTTTTTTCCAGGTGTT
The description is as above. The following applies: 6 mM MgCl2, 10 mM Tris pH 7.4 (HAB).

Assay [3] shares this test system. Put plainly: surface plasmon field-enhanced fluorescence titration. The following applies: 6 mM MgCl2; 10 mM Tris pH 7.4 (HAB); aptamer immobilised on gold; up to 12 mM guanosine.
[4] abbreviates: aptamer immobilised, fit limited to ATP ≤2 mM, full curve deviates from Langmuir.

For `Nc1ncnc2c1ncn2[C@@H]1O[C@H](CO)[C@@H](O)[C@H]1O`, the Kd is 90 µM in assay [1] (aptamer immobilised on gold) and 50 µM in assay [2] (aptamer immobilised on gold).
As for `Nc1nc2c(ncn2[C@@H]2O[C@H](CO)[C@@H](O)[C@H]2O)c(=O)[nH]1`, the binding entry in assay [3] is on record as “no”.
`Nc1ncnc2c1ncn2[C@@H]1O[C@H](COP(=O)(O)OP(=O)(O)OP(=O)(O)O)[C@@H](O)[C@H]1O`: the Kd came out at 300 µM in assay [1] (setting [4]) and 120 µM in assay [2] (setting [4]).
